Experimental data reported in article PMC4721540, “Selective activators of protein phosphatase 5 target the auto-inhibitory mechanism” (Bioscience Reports, 2015).
Positions count from the first letter of the chain named. In brackets after ≈: the same amount, converted by molar mass. Entries after “also recorded” stand apart in the source; their conditions may differ.

Assays:
PPH-5 [1] = molecular target: T1, PPH-5 (Caenorhabditis elegans, UniProt Q9NES8); assay: pNPP phosphatase assay with nematode PPH-5; type: biochemical, C. elegans; conditions: for kcat / fold activation: PPH-5 (C. elegans); for kcat: 60 mM pNPP, in presence of compound; for fold activation: based on kcat compared with PPH-5 basal activity; for activation of PPH-5 phosphatase activity: substances at 50 ng/ml, DMSO control
T1 construct: made in house
T1 sequence (Q9NES8 1-496): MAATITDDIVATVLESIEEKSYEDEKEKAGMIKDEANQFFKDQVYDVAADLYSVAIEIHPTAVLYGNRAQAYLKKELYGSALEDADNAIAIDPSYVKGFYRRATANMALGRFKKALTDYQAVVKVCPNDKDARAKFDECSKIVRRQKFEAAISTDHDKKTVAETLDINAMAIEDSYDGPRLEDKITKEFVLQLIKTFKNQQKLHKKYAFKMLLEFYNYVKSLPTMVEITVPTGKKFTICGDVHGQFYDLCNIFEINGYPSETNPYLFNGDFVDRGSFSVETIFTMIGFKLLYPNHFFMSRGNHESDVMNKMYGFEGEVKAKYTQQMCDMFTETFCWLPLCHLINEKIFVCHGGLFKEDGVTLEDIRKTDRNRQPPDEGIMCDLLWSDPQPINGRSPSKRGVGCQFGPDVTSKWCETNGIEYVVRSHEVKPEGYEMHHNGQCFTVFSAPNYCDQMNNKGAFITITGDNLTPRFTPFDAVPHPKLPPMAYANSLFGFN
Procedure: The compound library consisting of 10000 compounds (New Chemistry and Discovery Chemistry Collection, ChemDiv) was screened using a chromometric phosphatase assay with para-nitrophenyl phosphate (pNPP) as substrate. Phosphatase activity was determined by the conversion of pNPP to para-nitrophenole and absorption of the product at 410 nm (ε: 15100 cm^−1 M^−1). Assays were performed in 96-well plates in a PerkinElmer EnVision instrument with 50 nM of PPH-5. Reaction volume was 100 μl in a buffer of 40 mM HEPES, pH 7.5, 20 mM KCl, 5 mM MnCl2 and 1 mM DTT. The reaction was started by adding pNPP to a final concentration of 60 mM. The slope of the reaction was determined and deviations of >30% were considered potential hits leading to a collection of 76 initial compounds. […] These 76 compounds were maintained and rescreened individually in a Varian Cary 100 spectrophotometer (Agilent Technologies) in Hellma SUPRASIL precision quarz cells (10-mm path length) and 140 μl of reaction volumes. Finally, five compounds were obtained as reproducible activators and selected for further characterization.
(§1) Phosphatase assays for characterization of PP5 and PPH-5 properties were performed in 40 mM HEPES/KOH, 20 mM KCl, 5 mM MnCl2, 1 mM DTT, pH 7.5 and 60 mM pNPP at 20°C if not indicated otherwise. Phosphatase concentrations ranged from 50 to 500 nM in the assay. If indicated, the CeHsp90/DAF-21 peptide AEEDASRMEEVD was supplemented in the assay at a concentration of 60 μM. […] These concentrations were 70 μM for P5SA-1, 140 μM for P5SA-2, 50 μM for P5SA-3, 100 μM for P5SA-4 and 45 μM for P5SA-5.

PP5 = molecular target: T2, PP5 (Rattus norvegicus, UniProt P53042); assay: pNPP phosphatase assay with rat PP5; type: biochemical, R. norvegicus; conditions: for fold activation: PP5 (R. norvegicus)
T2 construct: His tag (inferred from pET28 vector and HisTrap purification); made in house; host or cells: E. coli BL21-CodonPlus (DE3)-RIL
T2 sequence (P53042 1-499): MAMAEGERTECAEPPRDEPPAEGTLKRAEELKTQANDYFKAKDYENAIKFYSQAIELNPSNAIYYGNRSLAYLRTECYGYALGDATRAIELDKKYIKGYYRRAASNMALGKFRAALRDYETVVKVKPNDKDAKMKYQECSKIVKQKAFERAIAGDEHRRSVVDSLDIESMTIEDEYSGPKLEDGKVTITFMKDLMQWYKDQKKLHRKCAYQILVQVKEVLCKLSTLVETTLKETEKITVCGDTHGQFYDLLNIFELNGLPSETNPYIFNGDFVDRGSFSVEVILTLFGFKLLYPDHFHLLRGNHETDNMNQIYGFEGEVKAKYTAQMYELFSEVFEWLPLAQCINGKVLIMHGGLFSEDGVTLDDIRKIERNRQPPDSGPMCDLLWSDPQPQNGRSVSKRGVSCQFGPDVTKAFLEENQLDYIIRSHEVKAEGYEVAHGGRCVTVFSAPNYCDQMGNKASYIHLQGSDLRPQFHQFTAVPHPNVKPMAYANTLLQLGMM
Procedure: as §1

physchem = type: physicochemical; conditions: 20 °C, pH 7.5, aqueous buffer
Procedure: as §1

PPH-5 [2] = molecular target: T1, PPH-5; assay: Relaxation-edited NMR binding to PPH-5; design: species or system C. elegans; conditions: 10 μM PPH-5, phosphate buffer, 20°C, no substrate
Procedure: NMR experiments were performed on an 800 MHz spectrometer (Bruker) with cryoprobe. The measurements were done in ^2H2O with phosphate buffer (4 mM KH2PO4, 16 mM Na2HPO4, 120 mM NaCl, pH 7.4) and 1%–5% of d6-DMSO. P5SA-2 without protein was recorded in high sensitivity experiments with a high number of scans. The CPMG sequence with an additional Watergate to suppress residual water was used. The T2 filtering time was set to 400 ms to suppress signals from slowly tumbling molecules. Peak intensities were normalized by comparing residual DMSO peaks. PPH-5 was added as indicated.

PP5 428–430/455–457 = molecular target: T3, PP5 428–430/455–457 (Rattus norvegicus, UniProt P53042, E428A/K430A/M455A/N457A/V429A); assay: pNPP phosphatase assay with PP5 428–430/455–457 mutant; type: biochemical; conditions: compound at 100 μM
T3 construct: made in house; host or cells: E. coli BL21-CodonPlus (DE3)-RIL
T3 sequence (P53042 1-499 E428A/V429A/K430A/M455A/N457A): T2 sequence (P53042 1-499) with E428A, V429A, K430A, M455A, N457A
Procedure: (§2) Cloning and purification of PPH-5 (protein phosphatase homologue), CeHsp90/DAF-21 (abnormal DAuer formation), YFP-CeHsp90/DAF-21, BAG-1 (Bcl-2 associated athanogene-1), DNJ-13 (DNJ-13 homologue) and CeHsc70 (C. elegans heat shock cognate 70) were performed as described before. The human phosphatases PP1, PP2A and PP2B/PP3 were purified as described. The expression clones of rat PP5, PP5-ΔN165 (166–499) and PP5-ΔC8 (1–491) were generated by PCR and insertion of the DNA into the pET28 vector. Expression clones of PP5 428–430, which contains A^428-A^429-A^430 instead of E^428-V^429-K^430 and PP5 […], which contains A^428-A^429-A^430 instead of E^428-V^429-K^430 and A^455-G^456-A^457 instead of M^455-G^456-N^457, were also generated by PCR using primer sequences containing the modified codons. PCR-products were inserted into the pET28b expression plasmid (Merck) and verified by DNA sequencing (GATC Biotech). Proteins were expressed in BL21-CodonPlus (DE3)-RIL bacteria (Stratagene). Bacterial cultures were grown to a D600 of 0.8 and induced with 1 mM IPTG. Cells were disrupted using a cell disruption machine (IUL Instruments) and the lysate was loaded on to a HisTrap FF column (GE Healthcare). […] Protein purity was assessed by SDS/PAGE and the molecular mass was determined on an UltraFlex III MALDI-TOF/TOF mass spectrometer (Bruker). […]

PP5 428–430 = molecular target: T4, PP5 428–430 (Rattus norvegicus, UniProt P53042, E428A/K430A/V429A); assay: pNPP phosphatase assay with PP5 428–430 mutant; type: biochemical; conditions: compound at 100 μM
T4 construct: made in house; host or cells: E. coli BL21-CodonPlus (DE3)-RIL
T4 sequence (P53042 1-499 E428A/V429A/K430A): T2 sequence (P53042 1-499) with E428A, V429A, K430A
Procedure: as §2

[3] = molecular target: T5, PPH-5 - CeHsp90/DAF-21 complex (Caenorhabditis elegans, UniProt Q9NES8); assay: Analytical ultracentrifugation of PPH-5/YFP-Hsp90 complex formation; type: binding, C. elegans; conditions: peptide 60 μM
T5 construct: made in house
Procedure: Binding of Hsp90 to PPH-5 was analysed by analytical ultracentrifugation with fluorescence detection as described before. Experiments were performed in a Beckman ProteomeLab XL-A analytical ultracentrifuge (Beckman) equipped with an AU-FDS detector (Aviv Biomedical). Analytical ultracentrifugation (AUC) runs were performed in 40 mM HEPES/KOH, pH 7.5, 20 mM KCl, 1 mM DTT. The concentration of labelled YFP–Hsp90 was 300 nM and 3 μM of PPH-5 were added to form a complex with YFP–Hsp90. Where indicated 60 μM of the C-terminal Hsp90/DAF-21 peptide (AEEDASRMEEVD) was present in the sample. Centrifugation was performed at 20°C and 142000 g for 12 h. Scans were recorded every 90 s. Data analysis was performed using a dc/dt approach according to Stafford. The dc/dt plots were fit to Gaussian functions in order to obtain the s20,w values of the respective species as described previously. P5SAs were added as indicated.

effect on complex formation between PPH-5 and YFP–Hsp90 ([3]; 300 nM YFP–Hsp90, 3 μM PPH-5, P5SAs at maximal soluble concentration) | sedimentation coefficient s20,w of YFP–Hsp90 with PPH-5 in presence of substance ([3]; complex without substance 8.9 S, YFP–Hsp90 alone 6.8 S) | fold activation (PP5; compound at 30 μM (solubility limited)) | Compound | kcat (PPH-5 [1]) | fold activation (PPH-5 [1]) | activation of PPH-5 phosphatase activity (PPH-5 [1]) | fold activation (PP5; compound at 100 μM) | solubility (physchem) | direct binding to PPH-5 by NMR (PPH-5 [2]) | stimulation of PP5 428–430/455–457 (PP5 428–430/455–457) | stimulation of PP5 428–430 (single-loop mutant) (PP5 428–430) | influence of MEEVD-containing peptide on apparent affinity of activator (PPH-5 [1]; PPH-5, 60 μM MEEVD-containing peptide) | stimulation of full-length rat PP5 at lower concentration (PP5; compound at 10 μM)
– | – | – | COc1ccc(-c2nc(Cc3ccc(Cl)cc3)no2)cc1OC [P5SA-2] | 1.99 ± 0.43 s⁻¹ | 3.2 | activate PPH-5 | 3.9 | 140 µM (≈ 46.3 µg/mL) | confirms binding of P5SA-2 to PPH-5 | could not observe any stimulation | no activation could be achieved | – | –
complex formation is strongly reduced | 7.6 S | – | AEEDASRMEEVD [MEEVD peptide, C-terminal Hsp90/DAF-21 peptide from Biomatik, used as control to disrupt the PPH-5–Hsp90 complex] | – | – | – | – | – | – | – | – | – | –
– | – | – | O=c1cc2nc(-c3ccc(F)cc3)nc(SCc3ccc(Br)cc3)n2[nH]1 [P5SA-4] | 4.85 ± 0.43 s⁻¹ | 7.8 | activate PPH-5 | 3.0 | 100 µM (≈ 43.1 µg/mL) | – | – | – | – | –
– | – | – | CNC(=O)c1c(NC(=O)COCC(=O)Nc2sc3c(c2C(=O)NC)CCC3)sc2c1CCC2 [P5SA-5] | 5.22 ± 0.67 s⁻¹ | 8.4 | activate PPH-5 | 8.6 | 45 µM (≈ 22.1 µg/mL) | – | could not detect stimulation; also recorded: did not stimulate the catalytic activity | did not stimulate the catalytic activity | only a minor influence on the apparent affinity | effect at the lower concentration was detectable
– | – | – | FC(F)(F)c1c2c(nc3c(-c4ccc(Cl)cc4)cnn13)CCC2 [P5SA-1] | 2.28 ± 0.28 s⁻¹ | 3.7 | activate PPH-5 | 4.1 | 70 µM (≈ 23.6 µg/mL) | – | – | – | – | –
– | – | 2.9 | CN1CCc2c(sc(-n3cccc3)c2CNC(=O)NC23CC4CC(CC(C4)C2)C3)C1 [P5SA-3] | – | 4.0 | activate PPH-5 | – | 50 µM (≈ 21.2 µg/mL) | – | – | – | – | –
